Biological target: T1, eNOS (Rattus norvegicus, UniProt Q62600)
T1 construct: endogenous in cells; host or cells: primary liver sinusoidal endothelial cells from male Sprague-Dawley rats (normal or bile-duct-ligated)
T1 sequence (Q62600 1-1202): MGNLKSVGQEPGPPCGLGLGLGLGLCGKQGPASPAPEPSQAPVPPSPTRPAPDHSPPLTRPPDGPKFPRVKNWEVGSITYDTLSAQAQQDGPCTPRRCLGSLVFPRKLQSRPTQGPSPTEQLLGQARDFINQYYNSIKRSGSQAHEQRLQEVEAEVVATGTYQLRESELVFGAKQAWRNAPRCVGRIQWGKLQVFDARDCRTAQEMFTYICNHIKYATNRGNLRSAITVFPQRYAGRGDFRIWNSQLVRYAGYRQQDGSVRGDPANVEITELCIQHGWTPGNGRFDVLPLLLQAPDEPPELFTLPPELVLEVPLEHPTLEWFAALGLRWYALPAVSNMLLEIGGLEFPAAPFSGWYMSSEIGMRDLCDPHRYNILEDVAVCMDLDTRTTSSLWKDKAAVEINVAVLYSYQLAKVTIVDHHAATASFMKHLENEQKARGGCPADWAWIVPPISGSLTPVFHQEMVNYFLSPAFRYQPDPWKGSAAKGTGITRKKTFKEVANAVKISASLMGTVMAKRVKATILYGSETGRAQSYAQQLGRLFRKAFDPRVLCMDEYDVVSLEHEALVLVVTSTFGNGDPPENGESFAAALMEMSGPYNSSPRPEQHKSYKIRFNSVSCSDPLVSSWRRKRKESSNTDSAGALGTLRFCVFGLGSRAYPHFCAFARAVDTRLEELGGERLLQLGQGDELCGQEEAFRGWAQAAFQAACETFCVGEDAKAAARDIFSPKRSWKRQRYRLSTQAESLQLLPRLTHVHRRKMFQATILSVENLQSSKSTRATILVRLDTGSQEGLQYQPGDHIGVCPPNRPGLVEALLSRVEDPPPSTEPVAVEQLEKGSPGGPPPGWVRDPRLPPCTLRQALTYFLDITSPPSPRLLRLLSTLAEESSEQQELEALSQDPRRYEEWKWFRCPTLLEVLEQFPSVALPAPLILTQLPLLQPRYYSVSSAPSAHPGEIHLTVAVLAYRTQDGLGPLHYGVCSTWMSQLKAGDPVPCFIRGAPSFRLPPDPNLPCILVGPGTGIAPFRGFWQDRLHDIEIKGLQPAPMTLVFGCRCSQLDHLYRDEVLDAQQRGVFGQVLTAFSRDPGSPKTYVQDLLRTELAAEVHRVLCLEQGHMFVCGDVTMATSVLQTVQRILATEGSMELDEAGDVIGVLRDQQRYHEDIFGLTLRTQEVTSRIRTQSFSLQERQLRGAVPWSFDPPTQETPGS
Test: NOS activity assay (conversion of L-[3H]arginine to L-[3H]citrulline) in sinusoidal endothelial cell lysates
Assay type: cell-based
Experimental: Cell isolation and culture. Sinusoidal endothelial cells were isolated from male Sprague-Dawley rats (450-500 g) (Harlan, Indianapolis, Ind.). In brief, after in situ perfusion of the liver with 20 mg/100 mg pronase (Roche Molecular Biochemicals, Indianapolis, Ind.), followed by collagenase (Worthington Biochemical, Lakewood, N.J.), dispersed cell suspensions were removed from a layered discontinuous density gradient of 8.2 and 15.6% Accudenz (Accurate Chemical and Scientific, Westbury, N.Y.), further purified by centrifugal elutriation (18 ml/min flow), and were grown in medium containing 20% serum (10% horse/calf). The purity of endothelial cells was documented by their uptake of fluorescently labeled di-l-acetoacetylated low-density lipoprotein as described (21). Only primary sinusoidal endothelial isolates of >95% purity were used for study. Experiments were performed with cells frorrr a minimum three different isolations (for all experiments).
Animal model of liver injury and portal hypedension. Liver injury and portal hypertension were induced by performing bile duct ligation in 450- to 500-gram male retired breeder Sprague-Dawley rats as described in Liu and 20- to 25-gram male BALB/c mice. Briefly, bile duct ligation was performed by surgical isolation and ligation of the common bile duct. This model creates a portal-based fibrogenic response and portal hypertension 10-14 days after surgery (Liu). For study of injured sinusoidal endothelial cells, we used the rat model of bile duct ligation (10-14 days postsurgery); for in vivo study (primarily to conserve the use of active compound), we used the mouse model of bile duct ligation (examining portal pressure 4 wk postsurgery). In sham-operated rats or mice, laparotomy without isolation and section of the bile duct was performed. Studies were approved by the local Institutional Animal Care and Use Committees. Portal pressure measurement. Portal hypertension was induced in male BALB/c mice by bile duct ligation as above. Cicletanine (5 mg·kg^−1·day^−1) or vehicle was given by gavage as a single daily dose for 10 days before portal pressure measurement as described in Liue. In brief, mice were anesthetized, and an intravenous catheter (Becton Dickinson Vascular Access, Sandy, Utah) was introduced in the portal vein and secured with a silk tie. A calibrated low-pressure transducer (Digi-Med, Louisville, Ky.) was connected to the portal vein catheter, and portal pressure was recorded continuously using the Digi-Med Integrator 200 System (Digi-bled).
NOS activity assay. NOS activity from sinusoidal endothelial cell lysates was assessed by measuring the conversion of L-[3H]arginine to L-[3H]citrulline as described (6) per the manufacturer's instructions (Cayman Chemical). In brief, triplicate samples of cell lysates were incubated with a reaction buffer containing 3 pmol of L-[3H]arginine (45 Ci/mmol), 0-50 μM arginine, 1 mM NADPH, 100 nM calmodulin (CaM), 2 mM CaCl2, and 30 μM BH4 in a volume of 50-100 μl at room temperature for 30 min and at 37° C. for an additional 30 min in the presence and absence of 1 mM NG-nitro-L-arginine methyl ester (L-NAME). […] Radiolabeled counts per minute of generated L-citrulline were measured and used to determine L-NAME-inhibitable NOS activity (thus, each experiment included total counts and background counts). […] The reductase activities of sinusoidal endothelial cells with or without cicletanine exposure were determined using the NADPH-dependent cytochrome c assay. […]

increase in eNOS activity, 6 h compared with 2 h (cicletanine 100 nM): greater at 6 h | eNOS activity above basal level at 2 and 6 h after exposure (cicletanine 100 nM, cell lysates at 2 and 6 h): consistent increases | eNOS activity (conversion of arginine to citrulline) (cicletanine 100 nM, normal sinusoidal endothelial cells): robust eNOS activity
Compound: Cc1ncc2c(c1O)COC2c1ccc(Cl)cc1 (stereo not shown) [cicletanine, 3-(4-chlorophenyl)-1,3-dihydro-7-hydroxy-6-methylfuro-(3,4-c) pyridine]
eNOS activity (sinusoidal endothelial cells injured by bile duct ligation, 2 h): increase

— patent publication US20170056380A1, “Systems, Methods, Techniques, and Compounds in Research and Treatment of Portal Hypertension and other Conditions” (priority 2014, published 2017)
